Measured values from patent US4156016A, “Indole compounds and process for their preparation” (Hoffmann-La Roche Inc., priority 1977, dated 1979).
Where two headings read alike, the source gives them in different places.

Legend:
[1] = system: arachidonic acid induced diarrhea; assay: Arachidonic acid diarrhea prevention (mice); format: in vivo, Carworth Farm CF-1 male mice; details: Mus musculus, po
Protocol: Carworth Farm CF-1 male mice weighing 18-20 grams were administered the test compound by either the oral or intraperitoneal route one hour prior to the intraperitoneal administration of 4 mg/kg of arachidonic acid (Hoffmann-La Roche Inc.). […] The diarrhea was graded on paper towels as follows: 0=solid pellet or no bowel movement; 1=slightly soft pellet with little or no wet ring formation; 2=moderately soft pellet with definite wet ring formation; 3=soft pellet with large wet ring formation; and 4=amorphous pellet with very large wet ring formation.
The calculation of the ED50 was made according to the method of Miller et al., Proc. Soc.

[2] = system: serum PGF2α; assay: Inhibition of prostaglandin formation: serum PGF2α by radioimmunoassay (rats); format: in vivo, male rats; details: for ED50: Rattus norvegicus, 1 h, rats
[3] = target: T1, Prostaglandin synthetase (Ovis aries, UniProt P05979); assay: Prostaglandin synthetase inhibition; format: biochemical; details: read-out: PG synthetase IC50
T1 construct: from tissue
T1 sequence (P05979 25-600): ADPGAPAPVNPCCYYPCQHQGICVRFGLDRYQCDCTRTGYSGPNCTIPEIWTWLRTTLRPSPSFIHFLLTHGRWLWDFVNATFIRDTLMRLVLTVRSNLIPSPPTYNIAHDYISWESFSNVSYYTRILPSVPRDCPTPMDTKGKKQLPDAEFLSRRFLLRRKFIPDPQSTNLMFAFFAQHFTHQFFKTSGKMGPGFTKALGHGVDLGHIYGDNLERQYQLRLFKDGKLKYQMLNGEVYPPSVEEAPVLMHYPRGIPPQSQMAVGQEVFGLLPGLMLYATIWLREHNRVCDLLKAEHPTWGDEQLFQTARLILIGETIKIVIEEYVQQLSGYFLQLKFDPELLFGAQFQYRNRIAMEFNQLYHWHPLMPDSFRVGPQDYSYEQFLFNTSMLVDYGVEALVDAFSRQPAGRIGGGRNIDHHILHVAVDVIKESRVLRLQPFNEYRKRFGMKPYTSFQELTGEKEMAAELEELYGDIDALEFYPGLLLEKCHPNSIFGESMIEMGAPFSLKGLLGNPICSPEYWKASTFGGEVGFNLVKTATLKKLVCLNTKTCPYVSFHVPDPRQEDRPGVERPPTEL

[4] = system: Collagen-Induced Platelet Aggregation; assay: Inhibition of collagen-induced platelet aggregation in human platelet-rich plasma; format: cell-based; details: for inhibition at 2.5 µM / inhibition at 5 µM / inhibition at 15 µM / inhibition at 25 µM / inhibition at 50 µM: read-out: Percent Inhibition
Protocol: (§1) Venous blood was collected from human volunteers in siliconized 20 ml. […] Platelet rich plasma (PRP) was separated from the red blood cells by centrifugation at 180×g for 15 minutes at room temperature. Platelet poor plasma (PPP) was prepared by centrifuging PRP at 1000×g for 2 minutes.
(§2) Techniques established by Born et al., J. Physiol. […] PRP (1 ml.) was added to a siliconized cuvette containing a siliconized stirring bar and placed in a densitometer maintained at 37° C. and stirred at 1000 RPM. Various concentrations of test compounds were added in 50 μl of saline and incubated with PRP for 5 minutes. Aggregation was initiated by the addition of sufficient concentrations of ADP (Sigma Chemical Co.), epinephrine HCl (Parke, Davis & Co., Detroit, Michigan), or human mammary gland collagen (obtained from Roosevelt Hospital, N.Y.) to give about 60% of maximum aggregation response. The light transmission through PPP was used to determine maximum response. The percent inhibition of aggregation caused by the drug was calculated from the strip chart recordings at the point of maximum collagen response.

[5] = system: ADP induced aggregation; assay: Inhibition of ADP-induced platelet aggregation (second wave) in human platelet-rich plasma; format: cell-based; details: for inhibition at 2.5 µM / inhibition at 5 µM / inhibition at 10 µM / inhibition at 20 µM / inhibition at 50 µM: Homo sapiens, Platelet, read-out: Percent Inhibition
Protocol: as §1, §2

[6] = Acute toxicity in mice; details: mouse, in vivo
Protocol: CF-IS mice of both sexes weighing 17-25 grams were used. The compounds were ground in a mortar and suspended in 5% gum acacia for oral or intraperitoneal administration. Eight to ten mice were used per dose level. […] The LD50 was calculated by the method of Miller et al., Proc. Soc. Exp. Biol. Med., 57, pages 261-264 (1944).

[7] = Gastric ulcer induction (rats); design: species or system male Wistar rats; details: rat, in vivo, po
Protocol: The test is a modification of that described by Brodie et al., Gastroenterology, 53, pages 604-610 (1967). Male Wistar rats (Royal Hart Laboratories) were deprived of food for 18 hours prior to testing. Tap water was permitted ad libitum. Test compounds were administered orally four hours to autopsy. The rats were sacrificed under ethyl ether anesthesia, opened along the ventral midline and the stomachs removed. The stomach was divided along the lesser curvature, everted, rinsed in saline, and examined for the presence of focal hemorrhage. Ulcers were rated on an all or none basis for incidence and, in addition, each stomach is graded for severity of ulcers formed. Ulcer scores: 0=none, 1=trace, 2=mild, 3=moderate, and 4=severe. The results of the ulcer scores obtained were subjected to statistical analysis by the student `t` test.

SMILES: N#Cc1[nH]c2ccc(C(O)(C(F)(F)F)C(F)(F)F)cc2c1-c1ccccc1 [nitrile, 3-Phenyl-5-[2,2,2-trifluoro-1-hydroxy-1-(trifluoromethyl)ethyl]indole-2-carbonitrile]
- ED50 [1]: 5 mg/kg
- serum PGF2α ([2]; 1 mg/kg i.p., ± SE): 27 ± 2.9 ng/mL
- serum PGF2α ([2]; 1 mg/kg p.o., ± SE): 28 ± 4.6 ng/mL
- serum PGF2α ([2]; 3 mg/kg i.p., ± SE, p <0.05): 18 ± 1.5 ng/mL
- serum PGF2α ([2]; 3 mg/kg p.o., ± SE): 19 ± 4.2 ng/mL
- serum PGF2α ([2]; 10 mg/kg i.p., ± SE, p <0.01): 18 ± 2.9 ng/mL
- serum PGF2α ([2]; 10 mg/kg p.o., ± SE, p <0.001): 12 ± 2.4 ng/mL
- serum PGF2α ([2]; 30 mg/kg i.p., ± SE, p <0.001): 2 ± 1.6 ng/mL
- serum PGF2α ([2]; 30 mg/kg p.o.): 0 ng/mL
- serum PGF2α ([2]; 100 mg/kg i.p.): 0 ng/mL
- serum PGF2α ([2]; 100 mg/kg p.o.): 0 ng/mL
- ED50 ([2]; ip): 15 mg/kg
- ED50 ([2]; po): 10 mg/kg
- IC50 [3]: 0.5 µM
- Δ light transmission ([4]; 2.5 μM, Expt. I): 49 units
- Δ light transmission ([4]; 2.5 μM, Expt. II): 50 units
- Δ light transmission ([4]; 5 μM, Expt. I): 24 units
- Δ light transmission ([4]; 5 μM, Expt. II): 20 units
- Δ light transmission ([4]; 15 μM, Expt. I): 8 units
- Δ light transmission ([4]; 15 μM, Expt. II): 7 units
- Δ light transmission ([4]; 25 μM, Expt. I): 5 units
- Δ light transmission ([4]; 25 μM, Expt. II): 5 units
- Δ light transmission ([4]; 50 μM, Expt. I): 4 units
- Δ light transmission ([4]; 50 μM, Expt. II): 3 units
- inhibition at 2.5 µM ([4]; Homo sapiens, Platelet, 2.5 μM, Expt. I): 24.6%
- inhibition at 2.5 µM ([4]; Homo sapiens, Platelet, 2.5 μM, Expt. II): 16.7%
- inhibition at 5 µM ([4]; Homo sapiens, Platelet, 5 μM, Expt. I): 63.1%
- inhibition at 5 µM ([4]; Homo sapiens, Platelet, 5 μM, Expt. II): 66.6%
- inhibition at 15 µM ([4]; Homo sapiens, Platelet, 15 μM, Expt. I): 87.7%
- inhibition at 15 µM ([4]; Homo sapiens, Platelet, 15 μM, Expt. II): 88.3%
- inhibition at 25 µM ([4]; Homo sapiens, Platelet, 25 μM, Expt. I): 92.4%
- inhibition at 25 µM ([4]; Homo sapiens, Platelet, 25 μM, Expt. II): 91.6%
- inhibition at 50 µM ([4]; Homo sapiens, Platelet, 50 μM, Expt. I): 93.8%
- inhibition at 50 µM ([4]; Homo sapiens, Platelet, 50 μM, Expt. II): 95%
- IC50 ([4]; Homo sapiens, Platelet, Table 7, read-out: Inhibition of collagen-induced platelet aggregation, Activity IC50): 3.5 µM
- IC50 ([4]; incubation in human citrated platelet-rich plasma, read-out: IC50 collagen): 3.5 µM
- Δ light transmission ([5]; 2.5 μM, Expt. I): 60 units
- Δ light transmission ([5]; 2.5 μM, Expt. II): 54 units
- Δ light transmission ([5]; 5 μM, Expt. I): 50 units
- Δ light transmission ([5]; 5 μM, Expt. II): 44 units
- Δ light transmission ([5]; 10 μM, Expt. I): 11 units
- Δ light transmission ([5]; 10 μM, Expt. II): 14 units
- Δ light transmission ([5]; 20 μM, Expt. I): 0 units
- Δ light transmission ([5]; 20 μM, Expt. II): 0 units
- Δ light transmission ([5]; 50 μM, Expt. I): 0 units
- Δ light transmission ([5]; 50 μM, Expt. II): 0 units
- inhibition at 2.5 µM ([5]; 2.5 μM, Expt. I): 0%
- inhibition at 2.5 µM ([5]; 2.5 μM, Expt. II): 1.8%
- inhibition at 5 µM ([5]; 5 μM, Expt. I): 16.7%
- inhibition at 5 µM ([5]; 5 μM, Expt. II): 20%
- inhibition at 10 µM ([5]; 10 μM, Expt. I): 18.6%
- inhibition at 10 µM ([5]; 10 μM, Expt. II): 74.5%
- inhibition at 20 µM ([5]; 20 μM, Expt. I): 100%
- inhibition at 20 µM ([5]; 20 μM, Expt. II): 100%
- inhibition at 50 µM ([5]; 50 μM, Expt. I): 100%
- inhibition at 50 µM ([5]; 50 μM, Expt. II): 100%
- IC50 ([5]; incubation in human citrated platelet-rich plasma): 7 µM
- LD50 at 120 h ([6]; ip): 750 mg/kg
- LD50 at 120 h ([6]; po): > 1000 mg/kg
- TD50 at 4 h [7]: > 250 mg/kg
